# Tests used:
# [1] = test system: primary mouse CD4+ T cells; assay: MTS proliferation assay, TGF-β1 treated primary mouse CD4+ T cells; type: cell-based
# Method: Compounds A-D were tested to determine whether they could inhibit TGF-β signaling in primary mouse CD4^+ T cells.
# Primary mouse CD4^+ T cells were isolated from the spleens of C57/B6 mice using the RoboSep™ cell isolation system (Stemcell Technologies). 0.5 μg/ml of hamster anti-mouse CD3e antibody (145-2C11; eBioscience) was coated onto a 96 well flat bottom plate overnight. 1×10^5 purified CD4^+ T cells were incubated with 1 μg/ml soluble hamster anti-mouse CD28 antibody (37.51, BD Biosciences), 1 nM TGF-β1 and 8-fold serial dilutions of Compounds A-D. After 72 hours, cell proliferation was measured using an MTS assay (Promega) in accordance with the manufacturer's instructions.
# [2] = test system: CMV responsive human PBMCs; assay: Cytokine secretion assay (IFN-γ) with CMV antigens; type: cell-based; settings: 1 nM TGF-β, 1 ng/ml each agent, 48 hours
# Method: In a 96-well round bottom plate, 1.5×10^5 CMV responsive human PBMCs (Astarte Biologics) were cultured with 1.5 μg/ml CMV antigens (Astarte Biologics) in serum free medium for 48 hours alone or in the presence of (i) 1 nM TGF-β, (ii) 1 nM TGF-β and T3A #5 at 1 ng/ml, (iii) 1 nM TGF-β and pembrolizumab at 1 ng/ml, (iv) 1 nM TGF-β, T3A #5 at 1 ng/ml, and pembrolizumab at 1 ng/ml, or (v) 1 nM TGF-β and isotype control antibody (negative control). IFN-γ levels were measured in the supernatants using a R&D ELISA kit.
# ALK5 = target: T1, ALK5 (Homo sapiens, UniProt P36897); assay: recombinant kinase assays (IC50 and Ki); type: biochemical; settings: Compound C versus Compound N
# T1 sequence (P36897 34-503): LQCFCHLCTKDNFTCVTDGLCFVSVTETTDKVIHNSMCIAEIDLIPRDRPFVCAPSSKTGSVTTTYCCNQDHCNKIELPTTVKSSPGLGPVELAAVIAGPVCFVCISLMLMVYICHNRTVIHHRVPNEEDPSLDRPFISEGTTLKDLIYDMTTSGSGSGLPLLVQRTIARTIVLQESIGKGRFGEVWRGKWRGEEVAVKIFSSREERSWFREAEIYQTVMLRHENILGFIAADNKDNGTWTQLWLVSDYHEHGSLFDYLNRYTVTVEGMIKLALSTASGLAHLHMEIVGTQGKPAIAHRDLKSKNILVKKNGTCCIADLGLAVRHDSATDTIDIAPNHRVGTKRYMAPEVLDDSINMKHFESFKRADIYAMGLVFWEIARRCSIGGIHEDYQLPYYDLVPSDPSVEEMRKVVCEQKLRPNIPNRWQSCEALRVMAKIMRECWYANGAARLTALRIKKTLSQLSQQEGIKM
# Source text: Compound N was compared to Compound C in a number of in vitro assays.
Compound,reversal of TGFβ-mediated inhibition of T cell proliferation ([1]; in words),"Experiment 1 IC50 (nM) ([1]; 1 nM TGF-β1, 72 hours)",also measured
"CNCCOc1ccc(-c2cc(-c3c[nH]nc3-c3ccccn3)ccn2)cc1 [Compound B, N-methyl-2-(4-{4-[3-(pyridin-2-yl)-1H-pyrazol-4-yl]pyridin-2-yl}phenoxy)ethan-1-amine]",reversed TGFβ-mediated inhibition of T cell proliferation,,
"Cc1cccc(-c2nc(N)sc2-c2ccc3ncccc3n2)n1 [Compound A, 4-(6-methylpyridin-2-yl)-5-(1,5-naphthyridin-2-yl)-1,3-thiazol-2-amine]",did not show consistent effects,Value not obtained,
"CCNC(=O)c1ccc2c(c1)NC(=O)/C2=C(\Nc1ccc(N(CCNC)S(C)(=O)=O)cc1)c1ccccc1 [Compound D, (Z)-N-ethyl-3-(((4-(N-(2-(methylamino)ethyl)methylsulfonamido)phenyl)amino)(phenyl)methylene)-2-oxoindoline-6-carboxamide]",,Value not obtained,"Experiment 2 IC50 (nM) ([1]; Experiment 2, 1 nM TGF-β1, 72 hours): Value not obtained; IC50 value in mouse CD4+ T cells ([1]; two different experiments, in words): not obtained"
"pembrolizumab: T cell checkpoint inhibitor (anti-PD1, Merck)",,,IFN-γ levels [2]: increase IFN-γ levels
"CNCCOc1ccc(-c2cc(-c3c[nH]nc3-c3cccc(C)n3)ccn2)cc1 [Compound C, N-methyl-2-(4-{4-[3-(6-methylpyridin-2-yl)-1H-pyrazol-4-yl]pyridin-2-yl}phenoxy)ethan-1-amine]",reversed TGFβ-mediated inhibition of T cell proliferation,,potency relative to Compound N in the recombinant assays (ALK5): 10 fold

# — patent US20220249680A1, “ANTIBODY-ALK5 INHIBITOR CONJUGATES AND THEIR USES” (Synthis Therapeutics, Inc., priority 2019, published 2022)
